In patent publication US8642656B2, “Calixarene-based peptide conformation mimetics, methods of use, and methods of making” (priority 2004, dated 2014):
Entries after “also recorded” stand apart in the source; their conditions may differ. Where two headings read alike, the source gives them in different places.

Legend:
endothelial cell (EC) = assay: EC Proliferation Assay, [3H]thymidine incorporation (Example 36, Table 1); assay type: cell-based; conditions: Table 1 and FIG. 3
Description: Human umbilical vein derived EC(HUVEC) were harvested from normal human umbilical cords by perfusion with 0.125% trypsin/EDTA as described in Groenewegen et al., J. Exp. Med. 164, 131-143 (1986). For determination of quiescent EC phenotype isolated ECs were immediately fixed in 1% paraformaldehyde. Human microvascular ECs (MVECs) were isolated. ECs were cultured in fibronectin coated tissue culture flasks in culture medium (RPMJ-1640 with 20% human serum (HS), supplemented with 2 mM glutamine and 100 U/ml penicillin and 0.1 mg/ml streptomycin).
EC proliferation was measured using a [^3H]thymidine incorporation assay. ECs were seeded at 5000 cells/well in flatbottomed tissue culture plates and grown for 3 days, in the absence or presence of regulators, in culture medium. During the last 6 hours of the assay, the culture was pulsed with 0.5μ Ci [methyl-^3H]thymidine/well.

[1] = tested on: LPS from E. coli serotype 055:B5; assay: LPS neutralization assay (Limulus amoebocyte lysate, QCL-1000); assay type: biochemical
Outline: (§1)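 LPS (0.04 units per strain) is mixed with compound and Limulus amoebocyte lysate. Proenzyme activation is then followed by chromogenic substrate cleavage and pNA absorbance at 405-410 nm. Dose-response curves are fit sigmoidally to give IC50.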

[2] = tested on: LPS from E. coli serotype 0111:B4; assay: as above; assay type: biochemical; conditions: read-out: IC50 values (μM) for LPS binding, E. coli 0111:B4
Outline: as §1

[3] = Toxicity assays in tumor-bearing mice: behavior, body weight, organ morphology; assay type: in vivo; conditions: for signs of toxicity (behavior, weight gain, hematocrit), in words: all in vivo tumor experiments
Description: As an indirect measurement of general toxicity, body weights of mice were monitored twice weekly, using a digital balance (Ohaus Florham, N.J.). To determine hematocrit levels, blood samples were extracted by tail vein bleedings one day after terminating treatment, and blood was collected in heparinized micro-hematocrit capillary lubes (Fisher Pittsburgh, Pa.). Samples were spun down for 10 minutes in a micro-hematocrit centrifuge (Clay-Adams; NY), and the amount of hematocrit was determined using an international microcapillary reader (IEC; Needham, Mass.).

fibroblasts = assay: Proliferation of fibroblasts (general cell toxicity check); assay type: cell-based
[4] = tested on: chorioallantoic membrane (CAM) vasculature; assay: Chorioallantoic membrane (CAM) assay; assay type: in vivo, chicken; conditions: 25 μM daily, day 10 to 13
Description: Fertilized Lohman-selected white leghorn eggs were incubated for 3 days at 37° C. and 55% relative humidity and rotated once every hour. On day 3 a rectangular window (1 cm×2 cm) was made in the eggshell. The window was covered with tape to prevent dehydration. The window allowed undisturbed observation of the developing vasculature of the CAM. On day 7 a silicon ring (10 mm diameter) was placed on the CAM to allow local drug administration within the ring. Compounds were applied daily in aliquots of 65 μl (25 μM) from day 10 to day 13. On day 14 the CAMs were photographed.

B16F10 tumor cells = assay: Proliferation of B16F10 tumor cells; assay type: cell-based, murine
LPS from P. aeruginosa = assay: LPS neutralization assay (Limulus amoebocyte lysate, QCL-1000); assay type: biochemical, Pseudomonas aeruginosa; conditions: read-out: IC50 values (μM) for LPS binding, P.a.
Outline: as §1

LPS from S. marcascens = assay: as above; assay type: biochemical, Serratia marcascens; conditions: read-out: IC50 values (μM) for LPS binding, Serratia
Outline: as §1

MA148 tumor vessels = assay: Histological analysis of microvessel density, anti-CD31 staining, MA148 tumors; assay type: in vivo, mice; conditions: mean ± standard error, 20 images
Description: (§2) Immunohistochemistry was used to assess microvessel density and the extent of total cell apoptosis. Approximately, tumors of the same size and with no apparent necrosis were selected for processing. On the last day of treatment mice were sacrificed and tumors were excised. Tumor tissue was embedded in tissue freezing medium (Miles Inc, Elkart, Ind.) and shock frozen in liquid nitrogen. Sections of tissue (10 μm thickness) were prepared for immunohistochemical analysis. For this, tissue sections were brought to room temperature, air dried overnight, and then fixed in acetone for 10 minutes. Slides were allowed to air dry for at least 30 minutes and were washed three limes for 5 minutes each in phosphate-buffered saline (PBS, pH 7.4). Samples were then blocked with PBS containing 0.1% bovine serum albumin and 3% human serum albumin for at least 30 minutes at room temperature in a humidified box. Samples were subsequently incubated with phycoerytrin (PE)-conjugated monoclonal antibody to CD31 (PECAM-1) in a 1:50 dilution (Pharmigen, San Diego, Calif.) to stain for microvessel density.
(§3) Digital images were stored and processed using Adobe Photoshop (Adobe Inc., Mountain View Calif.). Quantification of microvessel density, were determined as described previously (Dings et al., Cancer Res 63, 382-385 (2003)). Statistical analysis was performed using the Student's t-test.

[5] = tested on: MA148 human ovarian carcinoma; assay: Proliferation of MA148 tumor cells; assay type: cell-based; conditions: read-out: IC50 against MA148 tumor cells
B16F10 tumor vessels = assay: Histological analysis of microvessel density, anti-CD31 staining, B16F10 tumors; assay type: in vivo, mice; conditions: B16F10, 10 mg/kg; mean ± standard error, 20 images
Description: as §2, §3

[6] = Table 3, errors estimated ±30%, read-out: IC50 values (μM) for LPS binding, E. coli 055:B5

| Molecule | IC50 [1, 6] | IC50 ([2]; Table 3, errors estimated ±30%) | signs of toxicity (behavior, weight gain, hematocrit), in words [3] | angiogenesis inhibition in CAM assay (in words) [4] | IC50 (LPS from P. aeruginosa; Table 3, errors estimated ±30%) | IC50 (LPS from S. marcascens; Table 3, errors estimated ±30%) | Branch Points (MA148 tumor vessels; MA148, 10 mg/kg) | End Points (MA148 tumor vessels; MA148, 10 mg/kg) | Vessel Density (MA148 tumor vessels; MA148, 10 mg/kg) | Vessel Length (MA148 tumor vessels; MA148, 10 mg/kg) | IC50 [5] | Branch Points (B16F10 tumor vessels) | End Points (B16F10 tumor vessels) | Vessel Density (B16F10 tumor vessels) | Vessel Length (B16F10 tumor vessels) | other results |
| --- | --- | --- | --- | --- | --- | --- | --- | --- | --- | --- | --- | --- | --- | --- | --- | --- |
| CN(C)CCNC(=O)COc1c2cccc1Cc1cccc(c1OCC(=O)NCCN(C)C)Cc1cccc(c1OCC(=O)NCCN(C)C)Cc1cccc(c1OCC(=O)NCCN(C)C)C2 [Compound 40] | 3.4 µM | > 5 µM | did not generally show signs of toxicity | angiogenesis is inhibited | > 5 µM | > 5 µM | 1.0 ± 0.2 pixel counts per image | 23.0 ± 2.9 pixel counts per image | 5112 ± 439 pixel counts per image | 3.3 ± 0.5 pixel counts per image | 1 µM | 5.2 ± 0.7 pixel counts per image | 21.9 ± 2.6 pixel counts per image | 10231 ± 1330 pixel counts per image | 8.6 ± 1.2 pixel counts per image | antiangiogenic activity (in words) (endothelial cell (EC)): exceptional antiangiogenic activity; antiangiogenic activity (in words) (endothelial cell (EC); listed as KM0118 (40)): excellent antiangiogenic activity; IC50 ([1]; Table 2, read-out: IC50 values (μM) for LPS binding, E. coli 055:B4): 3.4 µM; IC50 ([2]; Table 2): > 5 µM; concentration giving 50% growth inhibition, fibroblasts (fibroblasts): no delectable effects; IC50 against B16F10 tumor cells (B16F10 tumor cells): neither demonstrated activity; IC50 (LPS from P. aeruginosa; Table 2): > 5 µM; IC50 (LPS from S. marcascens; Table 2): > 5 µM; Branch Points (MA148 tumor vessels; MA148, 2.4 mg/kg): 1.6 ± 0.3 pixel counts per image; End Points (MA148 tumor vessels; MA148, 2.4 mg/kg): 15.7 ± 2.1 pixel counts per image; Vessel Density (MA148 tumor vessels; MA148, 2.4 mg/kg): 7148 ± 844 pixel counts per image; Vessel Length (MA148 tumor vessels; MA148, 2.4 mg/kg): 5.3 ± 0.7 pixel counts per image |
| 5,11,17,23-Tetra-tert-butyl-25,27-bis(2-guanidinoethoxy)-26,28-dihydroxy calix[4]arene trifluoroacetic acid salt [Compound 27] | > 5 µM | > 5 µM | did not generally show signs of toxicity | angiogenesis is inhibited | > 5 µM | > 5 µM | 2.3 ± 0.6 pixel counts per image | 14.7 ± 2.2 pixel counts per image | 7402 ± 763 pixel counts per image | 5.0 ± 0.7 pixel counts per image | 3 µM | 3.5 ± 0.5 pixel counts per image | 35.2 ± 4.0 pixel counts per image | 10743 ± 764 pixel counts per image | 7.5 ± 0.6 pixel counts per image | antiangiogenic activity (in words) (endothelial cell (EC); trifluoroacetic acid salt): excellent antiangiogenic activity; also recorded: exceptional antiangiogenic activity; drop of body weights during treatment ([3]; B16 model, i.p. administration): about 5%; IC50 (fibroblasts; read-out: concentration giving 50% growth inhibition, fibroblasts): ~20 µM; IC50 (B16F10 tumor cells; read-out: IC50 against B16F10 tumor cells): 10 µM; Branch Points (MA148 tumor vessels; MA148, 2.7 mg/kg): 1.1 ± 0.3 pixel counts per image; End Points (MA148 tumor vessels; MA148, 2.7 mg/kg): 32.7 ± 6.0 pixel counts per image; Vessel Density (MA148 tumor vessels; MA148, 2.7 mg/kg): 6046 ± 533 pixel counts per image; Vessel Length (MA148 tumor vessels; MA148, 2.7 mg/kg): 4.2 ± 0.6 pixel counts per image |
